Test results published in ChEMBL document CHEMBL4507297, “Data for DCP probe PF-04457845” (2021).

What was measured:
[1] = target: Focal adhesion kinase 1 (Homo sapiens) (UniProt Q05397); details: Compound concentration 1000.0 nM
[2] = target: Dual specificity mitogen-activated protein kinase kinase 4 (Homo sapiens) (UniProt P45985); details: Compound concentration 1000.0 nM
[3] = target: LIM domain kinase 1 (Homo sapiens) (UniProt P53667); details: Compound concentration 1000.0 nM
[4] = target: MAP kinase-interacting serine/threonine-protein kinase 2 (Homo sapiens) (UniProt Q9HBH9); details: Compound concentration 1000.0 nM
[5] = target: ALK tyrosine kinase receptor (Homo sapiens) (UniProt Q9UM73); details: Compound concentration 1000.0 nM
[6] = target: Receptor tyrosine-protein kinase erbB-4 (Homo sapiens) (UniProt Q15303); details: Compound concentration 1000.0 nM
[7] = target: Serine/threonine-protein kinase PAK 4 (Homo sapiens) (UniProt O96013); details: Compound concentration 1000.0 nM
[8] = target: Misshapen-like kinase 1 (Homo sapiens) (UniProt Q8N4C8); details: Compound concentration 1000.0 nM
[9] = target: Serine/threonine-protein kinase tousled-like 2 (Homo sapiens) (UniProt Q86UE8); details: Compound concentration 1000.0 nM
[10] = target: Death-associated protein kinase 2 (Homo sapiens) (UniProt Q9UIK4); details: Compound concentration 1000.0 nM
[11] = target: Serine/threonine-protein kinase 4 (Homo sapiens) (UniProt Q13043); details: Compound concentration 1000.0 nM
[12] = tested on: Epidermal growth factor receptor (Homo sapiens), P00533 [UNDEFINED MUTATION]; details: Compound concentration 1000.0 nM
[13] = target: Myosin light chain kinase family member 4 (Homo sapiens) (UniProt Q86YV6); details: Compound concentration 1000.0 nM
[14] = target: Dual specificity mitogen-activated protein kinase kinase 6 (Homo sapiens) (UniProt P52564); details: Compound concentration 1000.0 nM
[15] = target: Protein kinase C theta type (Homo sapiens) (UniProt Q04759); details: Compound concentration 1000.0 nM
[16] = target: Serine/threonine-protein kinase mTOR (Homo sapiens) (UniProt P42345); details: Compound concentration 1000.0 nM
[17] = target: Serine/threonine-protein kinase pim-3 (Homo sapiens) (UniProt Q86V86); details: Compound concentration 1000.0 nM
[18] = target: Tyrosine-protein kinase receptor Tie-1 (Homo sapiens) (UniProt P35590); details: Compound concentration 1000.0 nM
[19] = target: Histamine H3 receptor (Homo sapiens) (UniProt Q9Y5N1); details: Compound concentration 10.0 uM
[20] = target: Casein kinase I isoform epsilon (Homo sapiens) (UniProt P49674); details: Compound concentration 1000.0 nM
[21] = target: Ephrin type-A receptor 6 (Homo sapiens) (UniProt Q9UF33); details: Compound concentration 1000.0 nM
[22] = target: T1, Muscarinic acetylcholine receptor M1 (Homo sapiens) (UniProt P11229); details: Compound concentration 10.0 uM
T1 sequence (whole entry): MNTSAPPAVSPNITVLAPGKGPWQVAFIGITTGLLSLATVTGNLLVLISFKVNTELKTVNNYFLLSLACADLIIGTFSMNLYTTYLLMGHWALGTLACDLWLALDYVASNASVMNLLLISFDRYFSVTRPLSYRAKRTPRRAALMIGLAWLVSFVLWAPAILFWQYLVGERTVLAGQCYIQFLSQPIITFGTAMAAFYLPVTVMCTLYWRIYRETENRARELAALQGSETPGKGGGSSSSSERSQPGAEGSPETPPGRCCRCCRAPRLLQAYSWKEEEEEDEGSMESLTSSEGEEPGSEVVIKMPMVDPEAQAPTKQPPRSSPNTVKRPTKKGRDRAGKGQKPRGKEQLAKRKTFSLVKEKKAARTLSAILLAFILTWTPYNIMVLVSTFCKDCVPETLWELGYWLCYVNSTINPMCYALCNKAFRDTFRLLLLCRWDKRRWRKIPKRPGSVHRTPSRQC

[23] = target: Mitogen-activated protein kinase 9 (Homo sapiens) (UniProt P45984); details: Compound concentration 1000.0 nM
[24] = target: Ephrin type-A receptor 4 (Homo sapiens) (UniProt P54764); details: Compound concentration 1000.0 nM
[25] = target: Rhodopsin kinase GRK7 (Homo sapiens) (UniProt Q8WTQ7); details: Compound concentration 1000.0 nM
[26] = target: Non-receptor tyrosine-protein kinase TYK2 (Homo sapiens) (UniProt P29597); details: Compound concentration 1000.0 nM
[27] = tested on: Receptor-type tyrosine-protein kinase FLT3 (Homo sapiens), P36888 [D835H]; details: Compound concentration 1000.0 nM
[28] = target: Transient receptor potential cation channel subfamily M member 6 (Homo sapiens) (UniProt Q9BX84); details: Compound concentration 1000.0 nM
[29] = target: Cyclin-dependent kinase-like 1 (Homo sapiens) (UniProt Q00532); details: Compound concentration 1000.0 nM
[30] = target: Tyrosine-protein kinase JAK1 (Homo sapiens) (UniProt P23458); details: Compound concentration 1000.0 nM
[31] = target: Tyrosine-protein kinase Yes (Homo sapiens) (UniProt P07947); details: Compound concentration 1000.0 nM
[32] = target: Interleukin-1 receptor-associated kinase 1 (Homo sapiens) (UniProt P51617); details: Compound concentration 1000.0 nM
[33] = target: Tyrosine-protein kinase receptor TYRO3 (Homo sapiens) (UniProt Q06418); details: Compound concentration 1000.0 nM
[34] = target: Serine/threonine-protein kinase TAO1 (Homo sapiens) (UniProt Q7L7X3); details: Compound concentration 1000.0 nM
[35] = target: 5-hydroxytryptamine receptor 1E (Homo sapiens) (UniProt P28566); details: Compound concentration 10.0 uM
[36] = target: Mitogen-activated protein kinase kinase kinase 6 (Homo sapiens) (UniProt O95382); details: Compound concentration 1000.0 nM
[37] = target: Tyrosine-protein kinase Fgr (Homo sapiens) (UniProt P09769); details: Compound concentration 1000.0 nM
[38] = target: Rhodopsin kinase GRK1 (Homo sapiens) (UniProt Q15835); details: Compound concentration 1000.0 nM
[39] = target: Serine/threonine-protein kinase PLK3 (Homo sapiens) (UniProt Q9H4B4); details: Compound concentration 1000.0 nM
Sequence of Serine/threonine-protein kinase PLK3 (Homo sapiens) (Q9H4B4 whole entry, looked up): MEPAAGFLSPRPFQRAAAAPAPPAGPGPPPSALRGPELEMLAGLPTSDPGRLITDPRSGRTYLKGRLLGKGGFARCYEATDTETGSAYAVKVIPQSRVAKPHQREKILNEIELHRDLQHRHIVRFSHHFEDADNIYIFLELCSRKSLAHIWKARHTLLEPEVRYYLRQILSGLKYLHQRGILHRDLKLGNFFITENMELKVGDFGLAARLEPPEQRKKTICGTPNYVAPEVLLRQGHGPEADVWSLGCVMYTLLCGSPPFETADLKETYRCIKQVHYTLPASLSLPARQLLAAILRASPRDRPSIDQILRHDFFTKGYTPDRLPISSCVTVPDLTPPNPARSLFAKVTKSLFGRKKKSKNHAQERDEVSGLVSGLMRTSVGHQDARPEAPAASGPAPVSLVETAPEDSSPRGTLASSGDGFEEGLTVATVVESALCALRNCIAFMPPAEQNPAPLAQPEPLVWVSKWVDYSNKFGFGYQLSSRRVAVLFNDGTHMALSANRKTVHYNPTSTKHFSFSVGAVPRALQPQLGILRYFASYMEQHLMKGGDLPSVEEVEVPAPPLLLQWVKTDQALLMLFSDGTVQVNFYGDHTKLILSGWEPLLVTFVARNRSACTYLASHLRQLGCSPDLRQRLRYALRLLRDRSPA

Sequence of Serine/threonine-protein kinase PAK 4 (Homo sapiens) (O96013 whole entry, looked up): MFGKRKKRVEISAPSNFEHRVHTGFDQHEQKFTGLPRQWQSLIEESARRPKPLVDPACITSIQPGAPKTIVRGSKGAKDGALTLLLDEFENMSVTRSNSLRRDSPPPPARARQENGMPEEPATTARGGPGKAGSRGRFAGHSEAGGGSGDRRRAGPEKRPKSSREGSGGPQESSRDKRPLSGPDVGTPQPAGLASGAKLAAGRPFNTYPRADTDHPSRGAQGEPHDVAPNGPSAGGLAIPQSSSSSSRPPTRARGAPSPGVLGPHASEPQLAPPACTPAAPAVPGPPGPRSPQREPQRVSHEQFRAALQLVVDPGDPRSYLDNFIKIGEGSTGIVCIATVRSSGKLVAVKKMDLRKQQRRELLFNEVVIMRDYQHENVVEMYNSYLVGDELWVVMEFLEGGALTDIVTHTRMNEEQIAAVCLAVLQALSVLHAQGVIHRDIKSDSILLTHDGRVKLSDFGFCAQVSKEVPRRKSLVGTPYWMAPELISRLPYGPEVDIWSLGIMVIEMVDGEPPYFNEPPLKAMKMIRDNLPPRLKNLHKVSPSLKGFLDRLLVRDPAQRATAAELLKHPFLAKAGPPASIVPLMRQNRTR
Sequence of Death-associated protein kinase 2 (Homo sapiens) (Q9UIK4 whole entry, looked up): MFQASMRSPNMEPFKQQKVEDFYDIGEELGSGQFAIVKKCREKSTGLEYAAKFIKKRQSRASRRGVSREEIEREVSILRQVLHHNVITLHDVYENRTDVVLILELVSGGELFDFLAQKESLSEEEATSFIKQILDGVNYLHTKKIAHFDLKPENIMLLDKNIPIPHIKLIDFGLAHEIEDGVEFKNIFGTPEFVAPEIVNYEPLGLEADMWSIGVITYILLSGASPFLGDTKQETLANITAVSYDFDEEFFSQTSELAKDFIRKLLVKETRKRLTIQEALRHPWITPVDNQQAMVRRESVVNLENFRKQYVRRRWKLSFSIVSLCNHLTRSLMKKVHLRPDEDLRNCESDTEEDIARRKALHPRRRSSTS
Sequence of Serine/threonine-protein kinase TAO1 (Homo sapiens) (Q7L7X3 whole entry): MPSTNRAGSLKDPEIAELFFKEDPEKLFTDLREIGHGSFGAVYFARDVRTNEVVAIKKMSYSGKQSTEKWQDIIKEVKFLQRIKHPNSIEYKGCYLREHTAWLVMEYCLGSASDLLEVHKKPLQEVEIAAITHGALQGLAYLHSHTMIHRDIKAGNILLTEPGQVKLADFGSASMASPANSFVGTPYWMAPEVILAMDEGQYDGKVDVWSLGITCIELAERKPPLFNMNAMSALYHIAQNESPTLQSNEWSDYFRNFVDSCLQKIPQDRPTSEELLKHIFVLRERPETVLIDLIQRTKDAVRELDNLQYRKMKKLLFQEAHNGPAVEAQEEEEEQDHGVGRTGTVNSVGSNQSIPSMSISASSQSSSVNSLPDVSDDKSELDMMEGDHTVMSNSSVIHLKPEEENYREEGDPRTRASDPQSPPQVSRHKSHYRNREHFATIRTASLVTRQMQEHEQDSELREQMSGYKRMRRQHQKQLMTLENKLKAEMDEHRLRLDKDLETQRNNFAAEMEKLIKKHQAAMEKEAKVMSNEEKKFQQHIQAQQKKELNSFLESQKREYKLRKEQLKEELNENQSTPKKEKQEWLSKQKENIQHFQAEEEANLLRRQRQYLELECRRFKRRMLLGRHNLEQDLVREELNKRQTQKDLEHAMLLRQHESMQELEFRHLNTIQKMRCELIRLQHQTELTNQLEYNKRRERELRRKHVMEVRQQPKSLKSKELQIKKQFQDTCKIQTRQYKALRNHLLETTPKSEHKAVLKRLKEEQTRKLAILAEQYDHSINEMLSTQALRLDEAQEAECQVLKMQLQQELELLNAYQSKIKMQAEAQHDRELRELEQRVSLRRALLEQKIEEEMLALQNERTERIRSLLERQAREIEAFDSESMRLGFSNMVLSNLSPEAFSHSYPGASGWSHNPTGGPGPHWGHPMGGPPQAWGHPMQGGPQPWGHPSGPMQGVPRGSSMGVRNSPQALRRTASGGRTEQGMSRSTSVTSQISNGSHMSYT
Sequence of Focal adhesion kinase 1 (Homo sapiens) (Q05397 2-1052 limits assumed): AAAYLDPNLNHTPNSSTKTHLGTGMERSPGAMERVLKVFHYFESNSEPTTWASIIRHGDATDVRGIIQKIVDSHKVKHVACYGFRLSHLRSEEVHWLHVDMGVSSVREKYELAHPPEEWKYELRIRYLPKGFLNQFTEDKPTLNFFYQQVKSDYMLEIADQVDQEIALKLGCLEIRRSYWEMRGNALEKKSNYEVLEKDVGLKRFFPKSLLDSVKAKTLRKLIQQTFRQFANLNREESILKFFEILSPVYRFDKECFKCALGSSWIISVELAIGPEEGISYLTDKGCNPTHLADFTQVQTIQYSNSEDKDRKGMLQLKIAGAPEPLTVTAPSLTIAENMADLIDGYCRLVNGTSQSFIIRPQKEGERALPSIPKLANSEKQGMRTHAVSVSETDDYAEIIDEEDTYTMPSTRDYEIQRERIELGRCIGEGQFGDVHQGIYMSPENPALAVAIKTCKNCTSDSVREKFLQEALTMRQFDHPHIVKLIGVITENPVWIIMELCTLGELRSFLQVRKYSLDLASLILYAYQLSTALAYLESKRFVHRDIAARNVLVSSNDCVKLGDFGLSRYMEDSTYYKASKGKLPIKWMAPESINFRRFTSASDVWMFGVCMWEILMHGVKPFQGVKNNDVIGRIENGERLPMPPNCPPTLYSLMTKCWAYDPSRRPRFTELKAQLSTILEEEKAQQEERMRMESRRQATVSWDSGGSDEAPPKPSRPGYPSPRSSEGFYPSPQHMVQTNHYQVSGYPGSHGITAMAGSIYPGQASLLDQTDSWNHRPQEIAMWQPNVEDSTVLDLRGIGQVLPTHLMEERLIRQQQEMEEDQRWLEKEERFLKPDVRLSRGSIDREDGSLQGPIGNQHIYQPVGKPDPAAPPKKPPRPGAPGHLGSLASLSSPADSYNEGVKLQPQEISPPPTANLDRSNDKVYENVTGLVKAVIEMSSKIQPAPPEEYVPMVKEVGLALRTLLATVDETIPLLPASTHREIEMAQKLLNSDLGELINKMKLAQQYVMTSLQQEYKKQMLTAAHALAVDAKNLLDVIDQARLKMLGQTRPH
Sequence of Ephrin type-A receptor 6 (Homo sapiens) (Q9UF33 whole entry): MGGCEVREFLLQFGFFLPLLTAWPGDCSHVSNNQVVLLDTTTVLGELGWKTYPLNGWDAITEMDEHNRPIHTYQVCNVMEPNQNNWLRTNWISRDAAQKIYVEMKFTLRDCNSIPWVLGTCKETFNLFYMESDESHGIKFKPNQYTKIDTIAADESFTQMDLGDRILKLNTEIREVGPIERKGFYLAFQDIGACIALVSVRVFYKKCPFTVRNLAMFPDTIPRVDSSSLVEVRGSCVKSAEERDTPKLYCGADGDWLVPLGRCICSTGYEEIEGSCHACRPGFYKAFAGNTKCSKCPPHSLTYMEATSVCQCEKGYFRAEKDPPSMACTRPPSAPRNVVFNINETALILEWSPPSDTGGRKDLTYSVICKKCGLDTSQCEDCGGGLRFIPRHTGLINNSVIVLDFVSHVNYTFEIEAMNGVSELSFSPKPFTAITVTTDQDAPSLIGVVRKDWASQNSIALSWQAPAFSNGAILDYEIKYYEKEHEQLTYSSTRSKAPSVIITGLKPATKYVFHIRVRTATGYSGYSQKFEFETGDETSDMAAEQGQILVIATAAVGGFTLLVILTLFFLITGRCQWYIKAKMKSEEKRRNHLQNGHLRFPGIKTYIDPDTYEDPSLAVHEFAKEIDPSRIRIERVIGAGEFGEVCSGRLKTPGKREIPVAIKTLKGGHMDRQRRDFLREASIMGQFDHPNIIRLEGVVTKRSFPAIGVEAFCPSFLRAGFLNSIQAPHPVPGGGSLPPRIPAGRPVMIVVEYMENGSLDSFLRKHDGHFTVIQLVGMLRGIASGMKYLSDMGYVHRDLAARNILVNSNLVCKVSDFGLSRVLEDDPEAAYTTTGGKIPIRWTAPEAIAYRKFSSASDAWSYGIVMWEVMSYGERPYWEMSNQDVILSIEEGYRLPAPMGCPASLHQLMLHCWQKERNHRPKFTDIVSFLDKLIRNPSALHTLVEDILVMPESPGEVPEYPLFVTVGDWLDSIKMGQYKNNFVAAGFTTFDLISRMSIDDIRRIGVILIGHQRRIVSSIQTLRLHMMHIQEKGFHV
Sequence of 5-hydroxytryptamine receptor 1E (Homo sapiens) (P28566 whole entry): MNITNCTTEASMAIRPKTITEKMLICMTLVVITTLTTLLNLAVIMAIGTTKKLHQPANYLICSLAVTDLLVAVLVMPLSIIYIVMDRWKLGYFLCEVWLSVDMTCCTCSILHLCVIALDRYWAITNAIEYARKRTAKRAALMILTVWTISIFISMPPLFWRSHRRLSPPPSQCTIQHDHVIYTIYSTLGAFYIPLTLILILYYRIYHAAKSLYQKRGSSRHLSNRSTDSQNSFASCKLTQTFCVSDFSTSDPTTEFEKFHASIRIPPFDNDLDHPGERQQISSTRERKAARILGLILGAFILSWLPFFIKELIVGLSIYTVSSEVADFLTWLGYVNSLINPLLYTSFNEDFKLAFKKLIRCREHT

O=C(Nc1cccnn1)N1CCC(=Cc2cccc(Oc3ccc(C(F)(F)F)cn3)c2)CC1
inactive: residual activity [1] 100% | residual activity [2] 100% | residual activity [3] 88% | residual activity [4] 100% | residual activity [5] 100% | residual activity [6] 100% | residual activity [7] 77% | residual activity [8] 100% | residual activity [9] 100% | residual activity [10] 69% | residual activity [11] 77% | residual activity [12] 73% | residual activity [13] 100% | residual activity [14] 100% | residual activity [15] 67% | residual activity [16] 87% | residual activity [17] 79% | residual activity [18] 100% | inhibition [19] 8.73% | residual activity [20] 100% | residual activity [21] 78% | inhibition [22] 29.5% | residual activity [23] 100% | residual activity [24] 100% | residual activity [25] 100% | residual activity [26] 100% | residual activity [27] 88% | residual activity [28] 98% | residual activity [29] 86% | residual activity [30] 100% | residual activity [31] 100% | residual activity [32] 100% | residual activity [33] 100% | residual activity [34] 100% | inhibition [35] 19% | residual activity [36] 100% | residual activity [37] 63% | residual activity [38] 89% | residual activity [39] 100%

O=C(Nc1cccnn1)N1CC(C/C=C/c2cncc(Oc3ccc(C(F)(F)F)cn3)n2)C1
inactive: residual activity [1] 100% | residual activity [2] 74% | residual activity [3] 88% | residual activity [4] 77% | residual activity [5] 97% | residual activity [6] 100% | residual activity [7] 96% | residual activity [8] 100% | residual activity [9] 100% | residual activity [10] 100% | residual activity [11] 100% | residual activity [12] 85% | residual activity [13] 100% | residual activity [14] 100% | residual activity [15] 100% | residual activity [16] 100% | residual activity [17] 100% | residual activity [18] 100% | inhibition [19] 17.3% | residual activity [20] 100% | residual activity [21] 100% | inhibition [22] -6.78% | residual activity [23] 72% | residual activity [24] 100% | residual activity [25] 85% | residual activity [26] 82% | residual activity [27] 100% | residual activity [28] 73% | residual activity [29] 100% | residual activity [30] 95% | residual activity [31] 100% | residual activity [32] 66% | residual activity [33] 100% | residual activity [34] 91% | inhibition [35] 0.84% | residual activity [36] 60% | residual activity [37] 100% | residual activity [38] 82% | residual activity [39] 80%
